Reference: patent publication EP4385508A1, “FURAN FATTY ACIDS FOR ENHANCING MUSCLE MASS” (Centre de Coopération Internationale en Recherche …, priority 2022, dated 2024)

Assays:
[1] = tested on: C57BL/6J mice; assay: High Fat and High Sucrose (HFHS) diet with FuFA-F2, quadriceps muscle mass; type: in vivo; settings: 12 weeks
Protocol: Forty six-weeks old male C57BL/6J mice (Charles River, L'Arbresle, France), weighing about 21 g, were housed (5 per cage) under conditions of constant temperature (20-22°C), humidity (45-50%) and a standard dark cycle (20.00-08.00 hours). The mice were randomized, according to their initial weight, into four groups of ten animals and fed for 12 weeks with one of the four following semi-purified diets: 1) control diet, 2) HFHS diet, 3) HFHS + FuFA-F2 (0.048%, 40mg/kg body weight/day), 4) HFHS + FuFA-F2 (0.127%, 105mg/kg body weight/day). In this example, "FuFA-F2" is the triacylglycerol form of FuFA-F2.
The control diet contains 5% lipids as a mixture of rapeseed oil, high oleic sunflower oil, sunflower oil and linseed oil (oil mixture of Carrefour), the high fat high sucrose (HFHS) diets contain 25% lipids (5% of a mixture of rapeseed oil, high oleic sunflower oil, sunflower oil and linseed oil and 20% of lard) and 30% sucrose. The detailed composition of the diets is given in Table 1 at the end of the present description. […]
Throughout the study, mice were given free access to food and tap water. Mice body weight was followed weekly and food consumption was determined every two days (during the week) or three days (the week-end). […]
Results were expressed as means ± SD. […]

[2] = tested on: C2C12 myotubes; assay: Total protein content (protein accretion) in C2C12 myotubes; type: cell-based, Mouse; settings: whatever the dose (1, 10, 50 µM), 3 days of supplementation, vs control
Protocol: Mouse myoblasts of the C2C12 cell line (ATCC) were seeded at a plating density of 7000 cells/cm2 in 6-well plates. They were grown in DMEM high glucose (4.5g/l) supplemented with gentamycin (50 µg/mL), amphotericin (50 µg/mL), and fetal calf serum (10%). Terminal differentiation was induced at cell confluence by lowering the medium serum concentration (0.5%).
When indicated, FuFA-F2 was added to the culture medium at the indicated concentration. For the differentiation studies, FuFA-F2 was added at the confluence at the same time as the change in media condition. Three doses of FuFA-F2 were studied at a final concentration of 1, 10, or 50 µM. Human insulin was used at a concentration of 100 nM.
Protein levels were assessed by Western blotting. Total proteins were measured using the Bio-Rad protein assay (Hercules, CA, USA) according to the manufacturer's instructions. Total proteins were lysed in RIPA buffer (20mM Tris, 150mM NaCl, 1mM EDTA, 1% NP40, pH 7.5 + complete cocktail protease inhibitors + Pierce phosphatase inhibitors tablet). 40 µg of cell extracts were loaded and blotted onto a nitrocellulose membrane. The membranes were washed, blocked with 5% nonfat milk and incubated in primary antibody overnight at 4°C. […]

Structure (SMILES): CCCCCc1cc(C)c(CCCCCCCCC(=O)O)o1 [FuFA-F2]
- quadriceps muscle mass ([1]; HFHS diet + FuFA-F2 (triacylglycerol form) at any dose (40 and 105mg/kg body weight/day), compared to HFHS alone): increased
- quadriceps muscle mass ([1]; highest dose 105mg/kg body weight/day by comparison to lowest dose 40mg/kg body weight/day, HFHS diet, triacylglycerol form): significantly increased
- total protein content in C2C12 myotubes [2]: significantly increase
